From US10597388B2, “Pyridazinone herbicides” (FMC CORPORATION, priority 2014, dated 2020)

Tests used:
Assay type in all cases: in vivo
[1] = test system: pigweed (Amaranthus retroflexus); assay: Test C greenhouse herbicide test, pre- and postemergence; conditions: for Plant response rating, Pigweed: Postemergence
How it was run: (§1)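 Each species was treated both before emergence, in a loam–sand soil mix, and after emergence, as 1- to 4-leaf seedlings in peat-based potting medium. Plants stayed in the greenhouse 13 to 15 d, then were scored from 0 (no effect) to 100 (complete control) relative to controls.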

corn (Zea mays) = assay: as above
How it was run: as §1

[2] = test system: oilseed rape (Brassica napus); assay: as above; conditions: for Plant response rating, Oilseed Rape: Postemergence
How it was run: as §1

[3] = test system: ragweed (common ragweed, Ambrosia elatior); assay: as above; conditions: for Plant response rating, Ragweed: Postemergence
How it was run: as §1

[4] = test system: crabgrass, large (large crabgrass, Digitaria sanguinalis); assay: as above; conditions: for Plant response rating, Crabgrass, Large: Postemergence
How it was run: as §1

[5] = test system: waterhemp (common waterhemp, Amaranthus rudis); assay: as above; conditions: for Plant response rating, Waterhemp: Postemergence
How it was run: as §1

[6] = test system: johnsongrass (Sorghum halepense); assay: as above; conditions: for Plant response rating, Johnsongrass: Postemergence
How it was run: as §1

[7] = test system: lambsquarters (Chenopodium album); assay: as above; conditions: for Plant response rating, Lambsquarters: Postemergence
How it was run: as §1

[8] = test system: foxtail, giant (giant foxtail, Setaria faberii); assay: as above; conditions: for Plant response rating, Foxtail, Giant: Postemergence
How it was run: as §1

soybean (Glycine max) = assay: as above; conditions: for Plant response rating, Soybean: Postemergence
How it was run: as §1

[9] = test system: ryegrass, Italian (Italian ryegrass, Lolium multiflorum); assay: as above; conditions: for Plant response rating, Ryegrass, Italian: Postemergence
How it was run: as §1

[10] = test system: blackgrass (Alopecurus myosuroides); assay: as above
How it was run: as §1

[11] = test system: morningglory (Ipomoea coccinea); assay: as above; conditions: for Plant response rating, Morningglory: Postemergence
How it was run: as §1

[12] = test system: nutsedge, yellow (yellow nutsedge, Cyperus esculentus); assay: as above; conditions: for Plant response rating, Nutsedge, Yellow: Postemergence
How it was run: as §1

[13] = test system: wheat (winter wheat, Triticum aestivum); assay: as above; conditions: for Plant response rating, Wheat: Postemergence
How it was run: as §1

kochia (Kochia scoparia) = assay: Test C greenhouse herbicide test, postemergence; conditions: for Plant response rating, Kochia: Postemergence
How it was run: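 Greenhouse postemergence spray on plants 2–18 cm tall; response judged visually after 13–15 d relative to untreated controls using a 0 (none) to 100 (full control) scale.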

[14] = 125 g ai/ha, scale 0 to 100, 0 is no effect, 100 is complete control
[15] = 250 g ai/ha, scale 0 to 100, 0 no effect, 100 complete control, 13 to 15 d
[16] = postemergence, 62 g ai/ha, scale 0 to 100, 0 no effect, 100 complete control
[17] = Postemergence, 31 g ai/ha, 0 to 100 scale (0 no effect, 100 complete control)
[18] = Postemergence, 125 g ai/ha, scale 0 to 100, 0 is no effect, 100 is complete control
[19] = Postemergence, 250 g ai/ha, scale 0 to 100, 0 no effect, 100 complete control, 13 to 15 d

## COc1nn(C)c(=O)c(-c2c(C)sc3ccc(Cl)cc23)c1O [Compound 100]
[1]; [14]
  Plant response rating, Pigweed: 100
[1]; [15]
  Plant response rating, Pigweed: 100
[1]; [16]
  Pigweed plant response rating: 85
Corn (Zea mays); [17]
  Corn plant response rating: 5
Corn (Zea mays); [18]
  Plant response rating, Corn: 5
Corn (Zea mays); [19]
  Plant response rating, Corn: 10
Corn (Zea mays); [16]
  Corn plant response rating: 10
[2]; [14]
  Plant response rating, Oilseed Rape: 10
[2]; [15]
  Plant response rating, Oilseed Rape: 90
[2]; [16]
  Oilseed Rape plant response rating: 60
[3]; [14]
  Plant response rating, Ragweed: 95
[3]; [15]
  Plant response rating, Ragweed: 98
[3]; [16]
  Ragweed plant response rating: 95
[4]; [14]
  Plant response rating, Crabgrass, Large: 25
[4]; [15]
  Plant response rating, Crabgrass, Large: 15
[4]; [16]
  Crabgrass, Large plant response rating: 15
[5]; [14]
  Plant response rating, Waterhemp: 95
[5]; [15]
  Plant response rating, Waterhemp: 98
[5]; [16]
  Waterhemp plant response rating: 90
[6]; [14]
  Plant response rating, Johnsongrass: 5
[6]; [15]
  Plant response rating, Johnsongrass: 10
[6]; [16]
  Johnsongrass plant response rating: 0
[7]; [14]
  Plant response rating, Lambsquarters: 98
[7]; [15]
  Plant response rating, Lambsquarters: 98
[7]; [16]
  Lambsquarters plant response rating: 90
[8]; [14]
  Plant response rating, Foxtail, Giant: 75
[8]; [15]
  Plant response rating, Foxtail, Giant: 90
[8]; [16]
  Foxtail, Giant plant response rating: 45
Soybean (Glycine max); [14]
  Plant response rating, Soybean: 5
Soybean (Glycine max); [15]
  Plant response rating, Soybean: 5
Soybean (Glycine max); [16]
  Soybean plant response rating: 5
[9]; [14]
  Plant response rating, Ryegrass, Italian: 90
[9]; [15]
  Plant response rating, Ryegrass, Italian: 95
[9]; [16]
  Ryegrass, Italian plant response rating: 90
[10]; [17]
  Blackgrass plant response rating: 5
[10]; [18]
  Plant response rating, Blackgrass: 5
[10]; [19]
  Plant response rating, Blackgrass: 25
[10]; [16]
  Blackgrass plant response rating: 5
[11]; [14]
  Plant response rating, Morningglory: 100
[11]; [15]
  Plant response rating, Morningglory: 100
[11]; [16]
  Morningglory plant response rating: 100
[12]; [14]
  Plant response rating, Nutsedge, Yellow: 20
[12]; [15]
  Plant response rating, Nutsedge, Yellow: 50
[12]; [16]
  Nutsedge, Yellow plant response rating: 25
[13]; [14]
  Plant response rating, Wheat: 0
[13]; [15]
  Plant response rating, Wheat: 5
[13]; [16]
  Wheat plant response rating: 0
Kochia (Kochia scoparia); [14]
  Plant response rating, Kochia: 95
Kochia (Kochia scoparia); [15]
  Plant response rating, Kochia: 95
Kochia (Kochia scoparia); [16]
  Kochia plant response rating: 90
